In patent US6365573B1, “Regulation of neural enzymes” (Neuronz Ltd., priority 1996, dated 2002):

Columns and labels:
Assay type in all cases: in vivo, rat
[1] = tested on: Choline acetyltransferase (ChAT); assay: ChAT immunopositive striatal neuron count after hypoxic-ischemic injury; settings: adult Wistar rats, 3 ug GPE centrally via guide cannula 2 hours after hypoxia, striatum counted 3 days after injury, vs vehicle; FIG. 1
Experimental: (§1) The objective of these studies was to determine the effects of administering GPE on expression of ChAT in the presence or absence of CNS injury. The experiment involved treating the rats with a control vehicle or GPE 2 hours after a focal CNS injury. […] The degree and length of hypoxia, the ambient temperature and humidity were defined to standardise the degree of damage. The neuronal death is restricted to the side of the carotid ligation and is primarily in the hippocarnpus, dentate gyrus, striatum and lateral cortex of the ligated hemisphere. There is no neuronal loss in the contralateral hemisphere.
(§2) Specifically, nine pairs of adult wistar rats (280-320g) were prepared under halothane/O2 anaesthesia. The right side carotid artery was ligated. A guide cannula was placed on the dura 7.5 mm anterior from stereotaxic zero and 1.5 mm from midline on the right. The rats were allowed to recover for 1 hour and were then placed in an incubator with humidity 90+/−5% and temperature 31+/−0.5° C. for 1 hour before hypoxia. Oxygen concentration was reduced and maintained at 6+/−0.202% for 10 minutes. […]
(§3) The size of the striatal region used for the count was measured using an image analyser. […] Data were analysed with paired t-test and presented as mean +/− sem.

NOS = NOS immunoreactivity in striatum after quinolinic acid induced injury; settings: adult male Wistar rats, 3 days, FIG. 5
Excerpt: (§4) The objective of this study was to determine the effect of GPE administration on the expression of GAD, NOS and ChAT in the presence or absence of injury to the striatum induced by quinolinic acid. When injected into the striatum in experimental animals quinolinic acid produces lesions arising from the loss of striatopallidal and striatonigral GABAergic projection neurons, but spares the axons in the striatum (Science, 219, 316-318 [1983]). Rats were either treated with a control vehicle or GPE 2 hours after administration of quinolinic acid.
(§5) A total of 14 adult male Wistar rats (280-310 g) were used in this investigation. Eight rats were anaesthetized using halothane/O2 anaesthesia. An injection of quinolinic acid ([…], Sigma, dissolved in 4M NaOH) was stereotaxically placed in the dorsal region of the right striatum 0.8 mm anterior to bregma, 2.5 mm lateral to the midline and 4.0 mm ventral to the pial surface. […]
(§6) The size of the striatal region used for the count was measured using an image analyser (Mocha image analysis software). […] The data has not been analysed for statistical signigicance. Tissue from one of the GPE treated animals was unable to be counted.

GAD [2] = assay: GAD immunopositive striatal neuron count after hypoxic-ischemic injury; settings: adult Wistar rats, 3 ug GPE 2 hours after hypoxia, striatum counted 3 days after injury, vs vehicle; *p<0.05; FIG. 2
Experimental: The objective of these studies was to determine the effects of administering GPE on expression of GAD in the presence or absence of CNS injury. The experiment involved treating the rats with a control vehicle or GPE 2 hours after a focal CNS injury. […] The degree and length of hypoxia, the ambient temperature and humidity were defined to standardise the degree of damage. The neuronal death is restricted to the side of the carotid ligation and is primarily in the hippocampus, dentate gyrus, striatum and lateral cortex of the ligated hemisphere. There is no neuronal loss in the contralateral hemisphere. Specifically, nine pairs of adult wistar rats (280-320 g) were prepared under halothane/O2 anaesthesia. The right side carotid artery was ligated. A guide cannula was placed on the dura 7.5 mm anterior from stereotaxic zero and 1.5 mm from midline on the right. The rats were allowed to recover for 1 hour and were then placed in an incubator with humidity 90+/-5% and temperature 31+/-0.5° C. for 1 hour before hypoxia. Oxygen concentration was reduced and maintained at 6+/-0.202% for 10 minutes. […] The size of the striatal region used for the count was measured using an image analyser. […] Data were analysed with paired t-test and presented as mean +/- sem.

GAD [3] = assay: GAD immunoreactivity in striatum after quinolinic acid induced injury; settings: adult male Wistar rats, 3 μg GPE into right lateral ventricle 2 hours after quinolinic acid, 3 days, vs vehicle; no statistics; FIG. 4
Excerpt: as §4, §5, §6

ChAT = ChAT immunoreactivity in striatum after quinolinic acid induced injury; settings: adult male Wistar rats, 3 μg GPE into right lateral ventricle 2 hours after quinolinic acid, 3 days; no statistics; FIG. 6
Excerpt: as §4, §5, §6

[4] = tested on: neuronal nitric oxide synthetase (NOS); assay: NOS immunopositive striatal neuron count after hypoxic-ischemic injury; settings: adult Wistar rats, 3 ug GPE 2 hours after hypoxia, striatum counted 3 days after injury, vs vehicle; #p=0.072, *p=0.008; FIG. 3
Experimental: as §1, with “NOS” for “ChAT”, “hippocampus,” for “hippocarnpus,”
as §2, with “(280-320 g)” for “(280-320g)”
as §3

Substance: Gly-Pro-Glu [GPE]
- number of ChAT immunopositive neurons [1]: increased in both the right and left (uninjured) sides
- NOS enzyme levels relative to normal, left (non-injured) side (NOS; 3 μg GPE 2 hours after quinolinic acid, compared with normal controls): restoring the enzyme levels to normal
- NOS enzyme expression (NOS-positive striatal neurons) (NOS; 3 μg GPE into right lateral ventricle 2 hours after quinolinic acid, vs vehicle, no statistics): upregulation of enzyme expression on both sides of the brain
- number of GAD immunopositive neurons (GAD [2]): increased in the right side
- GAD expression (GAD-positive striatal neurons) (GAD [3]): upregulation of GAD expression on both sides of the brain
- levels of ChAT (ChAT-positive striatal neurons) (ChAT): upregulated the levels of ChAT to above normal on the right (injured) side of the brain
- number of NOS immunopositive neurons [4]: increased in both the right and left (uninjured) sides
